In US8192962B2, “Processes for detecting toxic substances” (Daikin Industries, Ltd., priority 2001, dated 2012):

System: Energy system protein genes
Assay: DNA chip mRNA expression in yeast, energy system protein genes (Table 4)
Assay type: cell-based, Saccharomyces cerevisiae S288C
In short: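 S. cerevisiae S288C grown at 25° C in YPD were exposed in log phase for two hours to one toxic chemical at a growth-inhibiting, non-lethal concentration; untreated cells served as control. Poly(A) mRNA was reverse-transcribed with Cy3/Cy5-dUTP and hybridized to a whole-genome yeast DNA chip at 65° C for over 12 hours; values are fluorescence ratios versus untreated.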

## [Cl][Pb][Cl] [(4), PbCl2]
Yeast gene YAL060W
  The level of expressed mRNA in the presence of chemical substance/The level of expressed mRNA in the absence of chemical substance: 2.7
Yeast gene YBL058W, cells incubated two hours with the chemical substance
  The level of expressed mRNA in the presence of chemical substance/The level of expressed mRNA in the absence of chemical substance: 1.1
Yeast gene YBL099W, cells incubated two hours with the chemical substance
  The level of expressed mRNA in the presence of chemical substance/The level of expressed mRNA in the absence of chemical substance: 1.4
Yeast gene YBR001C, cells incubated two hours with the chemical substance
  The level of expressed mRNA in the presence of chemical substance/The level of expressed mRNA in the absence of chemical substance: 1.4
Yeast gene YBR185C, cells incubated two hours with the chemical substance
  The level of expressed mRNA in the presence of chemical substance/The level of expressed mRNA in the absence of chemical substance: 2.0
Yeast gene YBR221C, cells incubated two hours with the chemical substance
  The level of expressed mRNA in the presence of chemical substance/The level of expressed mRNA in the absence of chemical substance: 1.5
Yeast gene YCL040W
  The level of expressed mRNA in the presence of chemical substance/The level of expressed mRNA in the absence of chemical substance: 2.0
Yeast gene YCR012W
  The level of expressed mRNA in the presence of chemical substance/The level of expressed mRNA in the absence of chemical substance: 1.2
Yeast gene YCR046C, cells incubated two hours with the chemical substance
  The level of expressed mRNA in the presence of chemical substance/The level of expressed mRNA in the absence of chemical substance: 1.6
Yeast gene YCR105W, cells incubated two hours with the chemical substance
  The level of expressed mRNA in the presence of chemical substance/The level of expressed mRNA in the absence of chemical substance: 3.0
Yeast gene YDL021W
  The level of expressed mRNA in the presence of chemical substance/The level of expressed mRNA in the absence of chemical substance: 3.7
Yeast gene YDL067C, cells incubated two hours with the chemical substance
  The level of expressed mRNA in the presence of chemical substance/The level of expressed mRNA in the absence of chemical substance: 1.3
Yeast gene YDL078C, cells incubated two hours with the chemical substance
  The level of expressed mRNA in the presence of chemical substance/The level of expressed mRNA in the absence of chemical substance: 0.8
Yeast gene YDL107W, cells incubated two hours with the chemical substance
  The level of expressed mRNA in the presence of chemical substance/The level of expressed mRNA in the absence of chemical substance: 2.2
Yeast gene YDL174C
  The level of expressed mRNA in the presence of chemical substance/The level of expressed mRNA in the absence of chemical substance: 1.3
Yeast gene YDL181W, cells incubated two hours with the chemical substance
  The level of expressed mRNA in the presence of chemical substance/The level of expressed mRNA in the absence of chemical substance: 1.8
Yeast gene YDR001C
  The level of expressed mRNA in the presence of chemical substance/The level of expressed mRNA in the absence of chemical substance: 1.0
Yeast gene YDR050C, cells incubated two hours with the chemical substance
  The level of expressed mRNA in the presence of chemical substance/The level of expressed mRNA in the absence of chemical substance: 1.8
Yeast gene YDR079W, cells incubated two hours with the chemical substance
  The level of expressed mRNA in the presence of chemical substance/The level of expressed mRNA in the absence of chemical substance: 1.1
Yeast gene YDR178W, cells incubated two hours with the chemical substance
  The level of expressed mRNA in the presence of chemical substance/The level of expressed mRNA in the absence of chemical substance: 2.2
Yeast gene YDR231C
  The level of expressed mRNA in the presence of chemical substance/The level of expressed mRNA in the absence of chemical substance: 1.5
Yeast gene YDR298C, cells incubated two hours with the chemical substance
  The level of expressed mRNA in the presence of chemical substance/The level of expressed mRNA in the absence of chemical substance: 1.3
Yeast gene YDR377W, cells incubated two hours with the chemical substance
  The level of expressed mRNA in the presence of chemical substance/The level of expressed mRNA in the absence of chemical substance: 1.4
Yeast gene YDR529C, cells incubated two hours with the chemical substance
  The level of expressed mRNA in the presence of chemical substance/The level of expressed mRNA in the absence of chemical substance: 3.2
Yeast gene YEL024W, cells incubated two hours with the chemical substance
  The level of expressed mRNA in the presence of chemical substance/The level of expressed mRNA in the absence of chemical substance: 1.1
Yeast gene YEL039C, cells incubated two hours with the chemical substance
  The level of expressed mRNA in the presence of chemical substance/The level of expressed mRNA in the absence of chemical substance: 5.1
Yeast gene YER178W
  The level of expressed mRNA in the presence of chemical substance/The level of expressed mRNA in the absence of chemical substance: 1.0
Yeast gene YFL057C
  The level of expressed mRNA in the presence of chemical substance/The level of expressed mRNA in the absence of chemical substance: 1.8
Yeast gene YFR053C
  The level of expressed mRNA in the presence of chemical substance/The level of expressed mRNA in the absence of chemical substance: 2.2
Yeast gene YGL018C, cells incubated two hours with the chemical substance
  The level of expressed mRNA in the presence of chemical substance/The level of expressed mRNA in the absence of chemical substance: 3.0
Yeast gene YGL062W
  The level of expressed mRNA in the presence of chemical substance/The level of expressed mRNA in the absence of chemical substance: 0.6
Yeast gene YGL187C, cells incubated two hours with the chemical substance
  The level of expressed mRNA in the presence of chemical substance/The level of expressed mRNA in the absence of chemical substance: 1.8
Yeast gene YGL191W, cells incubated two hours with the chemical substance
  The level of expressed mRNA in the presence of chemical substance/The level of expressed mRNA in the absence of chemical substance: 1.8
Yeast gene YGL205W, cells incubated two hours with the chemical substance
  The level of expressed mRNA in the presence of chemical substance/The level of expressed mRNA in the absence of chemical substance: 0.8
Yeast gene YGL256W, cells incubated two hours with the chemical substance
  The level of expressed mRNA in the presence of chemical substance/The level of expressed mRNA in the absence of chemical substance: 1.3
Yeast gene YGR043C
  The level of expressed mRNA in the presence of chemical substance/The level of expressed mRNA in the absence of chemical substance: 7.9
Yeast gene YGR062C, cells incubated two hours with the chemical substance, 25° C., YPD medium
  The level of expressed mRNA in the presence of chemical substance/The level of expressed mRNA in the absence of chemical substance: 1.4
Yeast gene YGR087C, cells incubated two hours with the chemical substance
  The level of expressed mRNA in the presence of chemical substance/The level of expressed mRNA in the absence of chemical substance: 0.6
Yeast gene YGR174C, cells incubated two hours with the chemical substance
  The level of expressed mRNA in the presence of chemical substance/The level of expressed mRNA in the absence of chemical substance: 2.4
Yeast gene YGR192C
  The level of expressed mRNA in the presence of chemical substance/The level of expressed mRNA in the absence of chemical substance: 1.0
Yeast gene YGR244C
  The level of expressed mRNA in the presence of chemical substance/The level of expressed mRNA in the absence of chemical substance: 1.6
Yeast gene YGR254W
  The level of expressed mRNA in the presence of chemical substance/The level of expressed mRNA in the absence of chemical substance: 1.3
Yeast gene YHR179W
  The level of expressed mRNA in the presence of chemical substance/The level of expressed mRNA in the absence of chemical substance: 0.7
Yeast gene YIL160C
  The level of expressed mRNA in the presence of chemical substance/The level of expressed mRNA in the absence of chemical substance: 3.5
Yeast gene YIR031C, cells incubated two hours with the chemical substance
  The level of expressed mRNA in the presence of chemical substance/The level of expressed mRNA in the absence of chemical substance: 0.6
Yeast gene YJL052W
  The level of expressed mRNA in the presence of chemical substance/The level of expressed mRNA in the absence of chemical substance: 1.8
Yeast gene YJL121C, cells incubated two hours with the chemical substance
  The level of expressed mRNA in the presence of chemical substance/The level of expressed mRNA in the absence of chemical substance: 0.8
Yeast gene YJL166W, cells incubated two hours with the chemical substance
  The level of expressed mRNA in the presence of chemical substance/The level of expressed mRNA in the absence of chemical substance: 1.3
Yeast gene YJL216C, cells incubated two hours with the chemical substance
  The level of expressed mRNA in the presence of chemical substance/The level of expressed mRNA in the absence of chemical substance: 0.9
Yeast gene YJR009C
  The level of expressed mRNA in the presence of chemical substance/The level of expressed mRNA in the absence of chemical substance: 1.0
